Results from patent US12122776B2, “Tetracyclic compounds and uses thereof” (Gilead Sciences, Inc., priority 2020, dated 2024).
Like-named read-outs stand apart in the source and are kept apart here.

Tests used:
Type in all cases: cell-based
[1] = Cytotoxicity assay in MT-4 cells; conditions: human; uninfected MT-4 cells, 5 days incubation, Cell Titer Glo
Method: Cytotoxicity Assay in MT-4 Cells Assays were performed as above except uninfected MT-4 cells were added to each well containing test compound. In addition, 10 μM puromycin was added to the last column of each assay plate to assess a base level of cytotoxicity.

HIV-1 (IIIB) = test: Antiviral assay in MT-4 cells; conditions: Human immunodeficiency virus 1, MT4, 120 h; replication of HIV-1 (IIIB) in MT-4 cells, 5 days incubation, Cell Titer Glo
Method: Example 24: HIV MT-4 Antiviral and Cytotoxicity Assay
Antiviral Assay in MT-4 Cells
Compounds were tested in a high-throughput 384-well assay format for their ability to inhibit the replication of HIV-1 (IIIB) in MT-4 cells. Compounds were serially diluted (1:3) in DMSO on 384-well polypropylene plates and further diluted 200-fold into complete RPMI media (10% FBS, 1% P/S) using the Biotek Micro Flow and Labcyte ECHO acoustic dispenser. Each plate contained up to 8 test compounds, with negative (No Drug Control) and 5 μM AZT positive controls. MT-4 cells were pre-infected with 10 μL of either RPMI (mock-infected) or a fresh 1:250 dilution of HIV-1 IIIB concentrated virus stock. Infected and uninfected MT-4 cells were further diluted in complete RPMI media and added to each plate using a Micro Flow dispenser. After 5 days incubation in a humidified and temperature controlled incubator (37° C.), Cell Titer Glo (Promega) was added to the assay plates and chemiluminescence read using an Envision plate-reader. EC50 values were defined as the compound concentration that causes a 50% decrease in luminescence signal, and were calculated using a sigmoidal dose-response model to generate curve fits.

pLai RLuc reporter virus = test: HIV MT-4 serum shift antiviral reporter assay; conditions: Human immunodeficiency virus 1, MT4, 72 h
Method: Example 25: HIV MT-4 Serum Shift Antiviral Reporter Assay
To quantify the amount of protein binding to human serum, compounds were serially diluted (1:3) in DMSO and acoustically transferred onto 384-well assay plates via a Labcyte ECHO robot. Each plate contained up to 8 test compounds, including negative and positive controls, (DMSO, 5 μM AZT respectively). Assay plates were prepared in duplicate, and tested in either CCM (cell culture media) or HS/CCM (human serum/cell culture media). MT-4 cells were first pre-infected with pLai RLuc reporter virus for 2 h at 37° C., then further diluted in either CCM (RPMI media, 10% FBS, 1% P/S) or HS/CCM (RPMI media, 10% FBS, 50% HS, 1% P/S), and subsequently added to each plate using a Biotek Micro Flow dispenser. After a 72-h incubation in a humidified and temperature controlled incubator (37° C.), Renilla Glo (Promega) was added to all assay plates and chemiluminescence read using an Envision plate-reader. EC50 values were defined as the compound concentration that causes a 50% decrease in luminescence signal, and were calculated using a sigmoidal dose-response model to generate curve fits. To determine the amount of protein binding, EC50 fold shifts (or EC50 shifts) were calculated by dividing EC50 (HS/CCM)/EC50 (CCM).

[2] = read-out: Antiviral Serum Shift RLuc 50% HS
[3] = read-out: Antiviral Serum Shift RLuc CCM

| Structure (SMILES) | CC50 at 5 days [1] [nM] | EC50 (HIV-1 (IIIB)) [nM] | EC50 (pLai RLuc reporter virus; [2]) [nM] | EC50 (pLai RLuc reporter virus; [3]) [nM] |
| --- | --- | --- | --- | --- |
| O=C(NCc1c(F)cc(F)cc1F)c1c2n3c(c(O)c1=O)C(=O)N1CCCC[C@]3(C[C@@H]2F)C1 (single isomer, unassigned) [Compound 8-1] | 7380 | 0.86 | 25.4 | 0.429 |
| O=C(NCc1c(F)cc(F)cc1F)c1c2n3c(c(O)c1=O)C(=O)N1CCCC[C@]3(C[C@H]2O)C1 (single isomer, unassigned) [Compound 9-1] | 8080 | 3.06 | 200 | 0.685 |
| O=C(NCc1c(F)cc(F)cc1F)c1c2n3c(c(O)c1=O)C(=O)N1CCCC[C@@]3(C[C@H]2O)C1 (single isomer, unassigned) [Compound 9-2] | 5170 | 1.23 | 34.1 | 0.347 |
| O=C(NCc1c(F)cc(F)cc1F)c1c2n3c(c(O)c1=O)C(=O)N1CCCC[C@]3(C[C@@H]2O)C1 (single isomer, unassigned) [Compound 9-3] | 6310 | 1.06 | 28.5 | 0.384 |
| O=C(NCc1c(F)cc(F)cc1F)c1c2n3c(c(O)c1=O)C(=O)N1CCCC[C@@]3(C[C@@H]2O)C1 (single isomer, unassigned) [Compound 9-4] | 6400 | 0.703 | 5.19 | 0.388 |
| O=C(NCc1ccc(F)cc1F)c1c2n3c(c(O)c1=O)C(=O)N1CCCC[C@]3(C[C@H]2O)C1 (single isomer, unassigned) [Compound 10-1] | 9560 | 4.98 | 121 | 0.715 |
| O=C(NCc1ccc(F)cc1F)c1c2n3c(c(O)c1=O)C(=O)N1CCCC[C@@]3(C[C@H]2O)C1 (single isomer, unassigned) [Compound 10-2] | 4120 | 1.05 | 21.1 | 0.417 |
| O=C(NCc1ccc(F)cc1F)c1c2n3c(c(O)c1=O)C(=O)N1CCCC[C@]3(C[C@@H]2O)C1 (single isomer, unassigned) [Compound 10-3] | 9470 | 3.31 | 25.6 | 0.632 |
| O=C(NCc1ccc(F)cc1F)c1c2n3c(c(O)c1=O)C(=O)N1CCCC[C@@]3(C[C@@H]2O)C1 (single isomer, unassigned) [Compound 10-4] | 4610 | 2.47 | 3.3 | 0.405 |
| O=C(NCc1c(F)cc(F)cc1F)c1c2n3c(c(O)c1=O)C(=O)N1CCCC[C@@]3(C1)[C@H](O)[C@H]2O (single isomer, unassigned) [Compound 11-1] | 50000 | 4 | 3.91 | 1.16 |
| O=C(NCc1c(F)cc(F)cc1F)c1c2n3c(c(O)c1=O)C(=O)N1CCCC[C@@]3(C1)[C@@H](O)[C@@H]2O (single isomer, unassigned) [Compound 11-3] | 50000 | 5.28 | 7.57 | 4.08 |
| O=C(NCc1c(F)cc(F)cc1F)c1c2n3c(c(O)c1=O)C(=O)N1CCCC[C@]3(C1)[C@@H](O)[C@@H]2O (single isomer, unassigned) [Compound 11-4] | 50000 | 4.02 | 20.5 | 1.02 |
| CO[C@@H]1C[C@@]23CCCCN(C2)C(=O)c2c(O)c(=O)c(C(=O)NCc4c(F)cc(F)cc4F)c1n23 (single isomer, unassigned) [Compound 12-1] | 9690 | 1.54 | 16.9 | 0.77 |
| CO[C@H]1C[C@]23CCCCN(C2)C(=O)c2c(O)c(=O)c(C(=O)NCc4c(F)cc(F)cc4F)c1n23 (single isomer, unassigned) [Compound 12-2] | 11100 | 3.26 | 98.4 | 1.14 |
| O=C(NCc1ccc(F)c(Cl)c1F)c1c2n3c(c(O)c1=O)C(=O)N1CCCC[C@@]3(C[C@H]2O)C1 (single isomer, unassigned) [Compound 14-1] | 2310 | 1.1 | 26 | 0.22 |
| O=C(NCc1ccc(F)c(Cl)c1F)c1c2n3c(c(O)c1=O)C(=O)N1CCCC[C@@]3(C[C@@H]2O)C1 (single isomer, unassigned) [Compound 14-2] | 2110 | 0.73 | 11 | 0.41 |
| C[C@]1(O)C[C@@]23CCCCN(C2)C(=O)c2c(O)c(=O)c(C(=O)NCc4c(F)cc(F)cc4F)c1n23 (single isomer, unassigned) [Compound 15] | 3730 | 1.2 | 51 | 0.29 |
| C[C@H]1C=CC[C@]23C[C@@H](O)c4c(C(=O)NCc5c(F)cc(F)cc5F)c(=O)c(O)c(n42)C(=O)N1C3 (single isomer, unassigned) [Compound 21-1] | 4840 | 1.04 | 27 | 0.26 |
| C[C@H]1C=CC[C@]23C[C@H](O)c4c(C(=O)NCc5c(F)cc(F)cc5F)c(=O)c(O)c(n42)C(=O)N1C3 (single isomer, unassigned) [Compound 21-2] | 5370 | 0.8 | 12 | 0.27 |
| O=C(NCc1c(F)cc(F)cc1F)c1c2n3c(c(O)c1=O)C(=O)N1CCCC[C@@]3(CC2)C1 [Compound 1, (6aR)-11-hydroxy-1,10-dioxo-N-(2,4,6-trifluorobenzyl)-1,3,4,5,6,7,8,10-octahydro-2,6a-methano[1,4]diazonino[9,1,2-cd]indolizine-9-carboxamide] | 4300 | 1.35 | 8.71 | 0.299 |
| O=C(NCc1c(F)cc(F)cc1F)c1c2n3c(c(O)c1=O)C(=O)N1CCCC[C@]3(CC2)C1 [Compound 2, (6aS)-11-hydroxy-1,10-dioxo-N-(2,4,6-trifluorobenzyl)-1,3,4,5,6,7,8,10-octahydro-2,6a-methano[1,4]diazonino[9,1,2-cd]indolizine-9-carboxamide] | 6160 | 2.26 | 20.8 | 0.351 |
| O=C(NCc1ccc(F)cc1F)c1c2n3c(c(O)c1=O)C(=O)N1CCCC[C@@]3(CC2)C1 [Compound 3, (6aR)—N-(2,4-difluorobenzyl)-11-hydroxy-1,10-dioxo-1,3,4,5,6,7,8,10-octahydro-2,6a-methano[1,4]diazonino[9,1,2-cd]indolizine-9-carboxamide] | 4940 | 1.78 | 3.11 | 0.175 |
| O=C(NCc1ccc(F)cc1F)c1c2n3c(c(O)c1=O)C(=O)N1CCCC[C@]3(CC2)C1 [Compound 4, (6aS)—N-(2,4-difluorobenzyl)-11-hydroxy-1,10-dioxo-1,3,4,5,6,7,8,10-octahydro-2,6a-methano[1,4]diazonino[9,1,2-cd]indolizine-9-carboxamide] | 5140 | 3.09 | 32.3 | 0.72 |
| C[C@H]1CC[C@H](O)[C@]23CCc4c(C(=O)NCc5c(F)cc(F)cc5F)c(=O)c(O)c(n42)C(=O)N1C3 [Compound 23-1, (3S,6S,6aR)-6,11-dihydroxy-3-methyl-1,10-dioxo-N-(2,4,6-trifluorobenzyl)-1,3,4,5,6,7,8,10-octahydro-2,6a-methano[1,4]diazonino[9,1,2-cd]indolizine-9-carboxamide] | 26600 | 5.7 | – | – |
